Laboratory results published in ChEMBL document CHEMBL1933014, “Synthesis and antihyperglycemic evaluation of new 2,4-thiazolidinediones having biodynamic aryl sulfonylurea moieties” (2012).

Test system: Rattus norvegicus
Assay: Antihyperglycemic activity in normal albino rat sucrose-loaded model assessed as inhibition of postprandial rise in blood glucose level at 100 mg/kg, po pretreated 30 mins before sucrose challenge measured for 2 hrs during oral glucose tolerance test
Assay type: functional
Design: scale not given: the % may be the effect or the level left

Compound	Activity
O=C(NCC1SC(=O)NC1=O)NS(=O)(=O)c1ccc(F)cc1 (centres undefined)	10.7%
Cc1ccc(S(=O)(=O)NC(=O)NCC2SC(=O)NC2=O)cc1 (centres undefined)	11.5%
O=C(NCC1SC(=O)NC1=O)NS(=O)(=O)c1ccc(Br)cc1Br (centres undefined)	8.66%
O=C(NCC1SC(=O)NC1=O)NS(=O)(=O)c1ccccc1 (centres undefined)	15.8%
O=C(NCC1SC(=O)NC1=O)NS(=O)(=O)c1ccc(Cl)cc1Cl (centres undefined)	14.3%
CN(C)C(=N)NC(=N)N [METFORMIN]	27%
O=C(NCC1SC(=O)NC1=O)NS(=O)(=O)c1cc(Cl)ccc1Cl (centres undefined)	16.5%
O=C(NCC1SC(=O)NC1=O)NS(=O)(=O)c1ccc(Cl)cc1 (centres undefined)	17.2%
O=C(NCC1SC(=O)NC1=O)NS(=O)(=O)c1ccc(Br)cc1 (centres undefined)	9.44%
